Source: US4399290A, “Optically active tert-alkyl 7-(2-oxo-5-carbonyloxypyrrolidinyl)heptanoates” (E. I. Du Pont de Nemours and Company, priority 1981, dated 1983)

Tests used:
[1] = tested on: stomach (necrosis and inflammation caused by ethanol); experiment: oral cytoprotection against absolute-ethanol-induced stomach necrosis and inflammation (similar to Robert, U.S. Pat. No. 4,097,603); assay type: in vivo, rat (fasted, male); settings: for cytoprotective potency relative to racemic form: optical isomer versus racemic form, Table 1 data; for Percent Protection, 2 mg/kg 1 hr: 2 mg/kg oral, 1 hour interval between administration of compound and subsequent administration of ethanol
Protocol: The data of Table 1 are from tests similar to one described by Robert [U.S. Pat. No. 4,097,603 (1978)] in which fasted, male rats were treated with 8-azaprostanoids orally. Then, at various times later they were treated orally with 1.0 ml of absolute ethanol. The rats were sacrificed after ethanol administration and the stomachs were removed, inspected, and rated. The ED50 values of Table 1 represent the doses of 8-azaprostanoids that gave 50% protection from the necrosis and inflammation of the stomach caused by ethanol. For comparison, values are given for the natural prostaglandin, PGE1, and for racemic 7-[2-oxo-5(4,4-difluoro-3-hydroxy-1n-dec-1(E)-enyl)-1-pyrrolidinyl]heptanoic acid, which is identified in Table 1 as compound 8. The corresponding racemic tert-butyl ester is identified as 7. The structures of 7 and 8, each of which is a mixture of 4 optical isomers, are as follows: [drawing 18]
*"1 hr" refers to the 1 hour interval between administration of compound
and subsequent administration of ethanol.
**"Peak Time" refers to the interval between administration of compound
and administration of ethanol at which greatest protection is observed.

PGE1; rat stomach strips = experiment: antagonism of PGE1 in in vitro tests on rat stomach strips; settings: relative to racemic form 7
Description: Some differences in biological activities of the racemic forms and different optical isomers of these 8-azaprostanoids can be seen in the data presented in Table 1.

Structure (SMILES) | cytoprotective potency relative to racemic form [1] | Percent Protection, 2 mg/kg 1 hr [1] | potency as an antagonist of PGE1 (PGE1; rat stomach strips) | Peak Time ([1]; interval between administration of compound and of ethanol at which greatest protection is observed)
CCCCCCC(F)(F)[C@H](O)/C=C/[C@H]1CCC(=O)N1CCCCCCC(=O)O (single isomer, unassigned) [8l(15R), 7-[2-oxo-5(R or S)-5-(4,4-difluoro-3(R or S)-3-hydroxy-ln-dec-1(E)enyl)-1-pyrrolidinyl]heptanoic acid] | more potent as a cytoprotective agent than its racemic form 8 | – | – | –
CCCCCCC(F)(F)C(O)/C=C/C1CCC(=O)N1CCCCCCC(=O)OC(C)(C)C (single isomer, unassigned) [7d(15R,S), tert-butyl 7-[2-oxo-5-(S or R)-5-(4,4-difluoro-3(R,S)hydroxy-ln-dec-1(E)-enyl)-1-pyrrolidinyl]heptanoate] | less potent than its racemic form 7 | -5% | more potent than 7 as an antagonist of PGE1 | –
CCCCCCC(F)(F)C(O)/C=C/C1CCC(=O)N1CCCCCCC(=O)OC(C)(C)C (single isomer, unassigned) [7l(15R,S), tert-butyl 7-[2-oxo-5(R or S)-5-(4,4-difluoro-3(R,S)hydroxy-ln-dec-1(E)-enyl)-1-pyrrolidinyl]heptanoate] | – | 59% | – | –
CCCCCCC(F)(F)[C@@H](O)/C=C/[C@H]1CCC(=O)N1CCCCCCC(=O)O (single isomer, unassigned) [8l(15S), 7-[2-oxo-5(R or S)-5-(4,4-difluoro-3(R or S)-3-hydroxy-ln-dec-1(E)enyl)-1-pyrrolidinyl]heptanoic acid] | – | – | – | 15 min
